According to US20230279011A1, “WATER-SOLUBLE TRYPTHANTRIN DERIVATIVES FOR REDOX FLOW BATTERIES” (UNIVERSIDADE DE COIMBRA, priority 2020, published 2023):
Read-outs that look alike come from different tables or passages of the source.

Tests used:
[1] = Cyclic voltammetry: oxidation/reduction potentials vs. Ag/AgCl; type: physicochemical
Source text: Klimovich, A. A., Popov, A. M., Krivoshapko, O. N., Shtoda, Y. P. & Tsybulsky, A. V. A comparative assessment of the effects of alkaloid tryptanthrin, rosmarinic acid, and doxorubicin on the redox status of tumor and immune cells. Biophysics 62, 588-594 (2017) and in Jahng, Y. Progress in the studies on tryptanthrin, an alkaloid of history. Arch. Pharm. Res. 36, 517-535 (2013)), the electrochemical behavior of the compounds was initially performed by measuring cyclic voltammetry (CV) of TRYP at different pH values. Cyclic voltammograms (CVs) are presented in FIG. 3 and the relevant electrochemical data including the oxidation (Epa) and reduction (Epc) potentials are summarized in table 1.
Cyclic voltammetry (CV) experiments were carried out using an Autolab potentiostat/galvanostat PGSTAT204 running with NOVA 2.1 software and a three-electrode system in a one-compartment electrochemical cell of capacity 10 mL. A glassy carbon electrode (GCE) (d=3 mm) was the working electrode, glassy carbon (GC) (d=1.6 mm) wires the counter electrode and Ag/AgCl (3.0 M KCl) the reference electrode. The GCE was polished with appropriate polishing pads using first aluminium oxide with particle size 0.3 μm and then aluminium oxide particle with size 0.075 μm (polish in a […] motion) before each electrochemical experiment. After polishing, the electrode was rinsed thoroughly with Milli-Q water and the electrode was sonicate in a container with Milli-Q water and ethanol (50:50 v/v) for 5 minutes. Following this mechanical treatment, the GCE was placed in buffer supporting electrolyte and differential pulse voltammograms were recorded until a steady state baseline voltammogram was obtained.
Depending on the pH experiments different electrolytes were used, for pH=0 (1.0 M H2SO4) solution, for pH=7 (1.0 M KCl) solution and pH =13 (1.0 M NaOH) solution. Potassium ferricyanide ([…]) (1.0 mM solution) with 1.0 M of the proper electrolyte in 10 mL of Milli-Q water was used as standard and also degassed with nitrogen for 10 minutes prior to analysis. Lastly, to measure the OCV for BQDS, 1.0 mM was dissolved into 1.0 M KCl solution. An atmosphere of nitrogen was maintained during the voltammetric experiments, and the samples were run at a scan rate of 50 mV s^−1.

[2] = Cyclic voltammetry scan rate study: diffusion coefficient (Randles-Sevcik) and electron transfer rate constant (Nicholson); type: physicochemical
Description: To further verify the correlation between the reaction rate of the catholyte/anolyte pair with the performance and stability of the RFBs, the kinetic parameters, diffusion coefficient (D), and electron transfer rate constant (k0), were quantified.
Electrochemical kinetics studies were conducted by CV measurements and Nicholson analysis. […] The Randles-Sevcik equation, described in Elgrishi et al, A Practical Beginner's Guide to Cyclic Voltammetry. Journal of Chemical Education 2018, 95 (2), 197-206, was used to calculate the diffusion coefficient (D in cm^2 s^−1). A linear fit (ip=slope x v½) yields the slope of the cathodic and anodic peaks from which the D was obtained.
(§1) The electron transfer rate constant (k0) of K4[Fe(CN)6]/TRYP-SO3 redox couple was estimated by using the Nicholson method using the D values previously obtained, as described in Nicholson, R. S., Theory and Application of Cyclic Voltammetry for Measurement of Electrode Reaction Kinetics. Analytical Chemistry 1965, 37 (11), 1351-1355.
as §1, with “BQDS/TRYP-SO3” for “K4[Fe(CN)6]/TRYP-SO3”, “couple and TRYP-NH2” for “couple”
First, a solution of 1.0 mM of K4[Fe(CN)6] with 1.0 M of KCl in 10 mL of Milli-Q water was used as catholyte. Second, the catholyte was prepared by dissolving 1.0 mM of BQDS into 10 mL of 1.0 M KCl solution. All the solutions were degassed with nitrogen for 10 min prior to analysis. An atmosphere of nitrogen was maintained during the voltammetric experiments, and the samples were run at a scan rate of 10-100 mV s^−1 range. All the CV experiments were carried out at T=293 K.

[3] = Solubility in supporting electrolyte / water; type: physicochemical; conditions: 1.0 M KCl solution, saline or isotonic; in 1.0 M KCl
[4] = acidic medium, reported studies; cited from earlier work
[5] = in 1.0 M H2SO4; cited from earlier work
[6] = neutral pH, 1.0 mM in 1.0 M KCl
[7] = 1.0 mM in 1.0 M KCl, Nicholson method, T = 293 K

SMILES | Redox potential vs. Ag/AgCl [1, 6] | Electron transfer rate constant (k0) [2, 7] | Redox potential vs. Ag/AgCl [1] | Oxidation potential Epa^1 (first peak) ([1]; pH 13) | Oxidation potential Epa^2 (second peak) ([1]; pH 13) | Oxidation potential Epa^3 (third peak) ([1]; pH 13) | Reduction potential Epc^1 (first peak) ([1]; pH 13) | Reduction potential Epc^2 (second peak) ([1]; pH 13) | Reduction potential Epc^3 (third peak) ([1]; pH 13) | Diffusion coefficient (D) [2] | Electron transfer rate constant (k0) [2] | solubility [3] | Electrode potential in KCl ([1]; in KCl, neutral pH) | Diffusion coefficient (D) ([2]; 1.0 mM in 1.0 M KCl, 10-100 mV s^−1, T = 293 K) | Electrode potential [4] | Solubility in sulfuric acid [5]
Nc1ccc2nc3n(c(=O)c2c1)-c1ccccc1C3=O [TRYP-NH2, 2-aminoindolo[2,1-b]quinazoline-6,12-dione] | −0.45 V | 0.264 cm/s |  |  |  |  |  |  |  |  |  |  |  |  |  | 
O=C1c2cc(S(=O)(=O)O)ccc2-n2c1nc1ccccc1c2=O [TRYP-SO3H, 6,12-dioxo-6,12-dihydroindolo[2,1-b]cquinazoline-8-sulfonic acid] |  |  | −0.46 V | Epa^1 = 0.225 V | Epa^2 = 0.738 V | Epa^3 = 1.178 V | Epc^1 = −0.325 V | Epc^2 = −0.802 V | Epc^3 = −0.930 V | 6.98e-08 cm/s | 0.000362 cm/s |  |  |  |  | 
O.O=S(=O)([O-])c1cc(O)c(O)c(S(=O)(=O)[O-])c1.[Na+].[Na+] [BQDS, 4,5-dihydroxy-1,3-benzenedisulfonic acid disodium salt monohydrate, reference compound] | 0.48 V | 0.000271 cm/s |  |  |  |  |  |  |  |  |  | 1280 mM | 0.94 V | 5.38e-07 cm/s | 0.76 V | 650 mM
